# Values of other authors, collected in patent EP0611214A2, “Acidic composition and process of using same” (MINNESOTA MINING AND MANUFACTURING COMPANY, priority 1993, dated 1994).
# Details: in water, as reported in U.S. Pat. No. 5,080,822, column 4
row,SMILES,aqueous ambient temperature solubility in weight percent [weight percent]
1,CC(O)COc1ccccc1 (centres unmarked) [1-phenoxy-2-propanol],1.1
2,OCCc1ccccc1 [8-phenylethanol],1.6

# Other lines, results leading:
row,aqueous ambient temperature solubility in weight percent [weight percent],SMILES
1,2.3,OCCOc1ccccc1 [2-phenoxyethanol]
2,0.5,CC(=O)c1ccccc1 [acetophenone]
3,4.4,OCc1ccccc1 [benzyl alcohol]
